Targets include D(3) dopamine receptor (Homo sapiens, UniProt P35462); Adenosine receptor A2a (Homo sapiens, UniProt P29274); Motilin receptor (Homo sapiens, UniProt O43193); Vasopressin V2 receptor (Homo sapiens, UniProt P30518); Melanocortin receptor 3 (Homo sapiens, UniProt P41968).
In assay [1] the target is T1, Alpha-2A adrenergic receptor (Homo sapiens, UniProt P08913).
T1 sequence (P08913 whole entry): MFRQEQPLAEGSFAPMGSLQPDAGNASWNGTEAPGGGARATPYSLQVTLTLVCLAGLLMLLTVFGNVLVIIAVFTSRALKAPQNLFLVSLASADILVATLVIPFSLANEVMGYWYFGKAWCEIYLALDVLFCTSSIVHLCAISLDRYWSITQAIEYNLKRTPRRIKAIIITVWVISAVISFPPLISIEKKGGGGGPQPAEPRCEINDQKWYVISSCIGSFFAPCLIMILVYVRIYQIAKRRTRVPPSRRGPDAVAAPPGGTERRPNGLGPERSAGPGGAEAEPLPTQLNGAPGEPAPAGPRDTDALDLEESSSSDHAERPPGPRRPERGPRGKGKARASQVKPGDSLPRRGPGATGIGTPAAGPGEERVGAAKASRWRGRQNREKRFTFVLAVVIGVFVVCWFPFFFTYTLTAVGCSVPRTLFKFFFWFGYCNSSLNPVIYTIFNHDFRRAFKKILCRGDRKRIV
The class given is functional, cell-based.

The target in assay [2] is T2, Amine oxidase [flavin-containing] A (Homo sapiens, UniProt P21397).
T2 sequence (P21397 whole entry): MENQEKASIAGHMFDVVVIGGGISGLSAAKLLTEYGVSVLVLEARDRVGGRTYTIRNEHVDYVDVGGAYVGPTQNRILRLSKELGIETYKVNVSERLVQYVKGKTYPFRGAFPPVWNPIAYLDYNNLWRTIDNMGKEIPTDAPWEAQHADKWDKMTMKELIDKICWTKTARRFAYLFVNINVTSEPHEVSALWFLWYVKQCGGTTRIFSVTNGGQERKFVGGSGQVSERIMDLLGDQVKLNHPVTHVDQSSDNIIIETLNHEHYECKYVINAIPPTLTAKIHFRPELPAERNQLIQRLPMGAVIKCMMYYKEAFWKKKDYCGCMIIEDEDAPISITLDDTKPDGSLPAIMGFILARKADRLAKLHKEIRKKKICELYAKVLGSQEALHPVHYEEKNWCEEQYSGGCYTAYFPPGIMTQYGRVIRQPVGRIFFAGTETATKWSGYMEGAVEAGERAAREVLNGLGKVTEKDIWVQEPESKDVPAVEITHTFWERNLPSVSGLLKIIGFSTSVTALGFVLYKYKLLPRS
The format is functional.

In assay [3] the target is Neuronal acetylcholine receptor subunit alpha-4 (Homo sapiens, UniProt P43681).
Chain of Neuronal acetylcholine receptor subunit alpha-4 (P43681 whole entry): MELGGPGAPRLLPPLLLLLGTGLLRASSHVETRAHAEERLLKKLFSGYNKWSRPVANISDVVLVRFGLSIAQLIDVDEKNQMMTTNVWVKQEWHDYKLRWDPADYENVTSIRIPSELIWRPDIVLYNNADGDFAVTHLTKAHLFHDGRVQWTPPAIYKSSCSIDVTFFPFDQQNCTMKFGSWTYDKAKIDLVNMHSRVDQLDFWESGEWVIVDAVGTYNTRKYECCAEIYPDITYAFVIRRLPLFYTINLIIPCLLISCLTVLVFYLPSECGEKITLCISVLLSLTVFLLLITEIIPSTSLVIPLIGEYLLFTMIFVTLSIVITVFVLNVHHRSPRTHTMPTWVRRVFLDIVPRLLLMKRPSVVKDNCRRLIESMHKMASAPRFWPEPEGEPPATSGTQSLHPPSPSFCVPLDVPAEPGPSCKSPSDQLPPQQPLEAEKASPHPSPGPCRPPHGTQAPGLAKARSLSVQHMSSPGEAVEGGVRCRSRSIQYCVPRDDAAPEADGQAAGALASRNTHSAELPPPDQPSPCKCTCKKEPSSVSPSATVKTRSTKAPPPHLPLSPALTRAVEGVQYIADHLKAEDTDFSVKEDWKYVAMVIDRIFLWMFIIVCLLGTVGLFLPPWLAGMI
For assay [4], the target named is Delta-type opioid receptor (Homo sapiens, UniProt P41143).
Chain of Delta-type opioid receptor (P41143 whole entry): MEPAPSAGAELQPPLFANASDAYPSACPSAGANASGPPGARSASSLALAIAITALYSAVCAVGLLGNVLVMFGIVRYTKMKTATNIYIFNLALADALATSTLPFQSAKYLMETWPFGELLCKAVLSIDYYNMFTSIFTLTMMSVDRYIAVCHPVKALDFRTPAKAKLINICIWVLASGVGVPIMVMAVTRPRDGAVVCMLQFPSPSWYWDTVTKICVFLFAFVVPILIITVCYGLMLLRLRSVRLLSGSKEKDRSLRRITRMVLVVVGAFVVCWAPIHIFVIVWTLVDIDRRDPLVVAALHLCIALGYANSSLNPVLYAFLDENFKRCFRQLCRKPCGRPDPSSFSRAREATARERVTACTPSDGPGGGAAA
For assay [5], the target named is T3, Type-1 angiotensin II receptor (Homo sapiens, UniProt P30556).
T3 sequence (P30556 whole entry): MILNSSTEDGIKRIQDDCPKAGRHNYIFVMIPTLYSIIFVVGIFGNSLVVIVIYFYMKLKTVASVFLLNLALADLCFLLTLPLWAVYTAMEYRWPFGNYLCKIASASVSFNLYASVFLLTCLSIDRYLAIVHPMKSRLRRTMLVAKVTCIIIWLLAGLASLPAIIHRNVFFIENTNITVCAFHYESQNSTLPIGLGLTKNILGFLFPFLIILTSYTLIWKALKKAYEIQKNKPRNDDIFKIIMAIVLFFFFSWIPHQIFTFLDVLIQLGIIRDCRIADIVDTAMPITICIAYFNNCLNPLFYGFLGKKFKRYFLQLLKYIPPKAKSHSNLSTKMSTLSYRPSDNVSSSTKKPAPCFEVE

For assay [6], the target named is Voltage-gated inwardly rectifying potassium channel KCNH2 (Homo sapiens, UniProt Q12809). The class given is functional.
In assay [7] the target is T4, Neuropeptide Y receptor type 1 (Homo sapiens, UniProt P25929).
T4 sequence (P25929 whole entry): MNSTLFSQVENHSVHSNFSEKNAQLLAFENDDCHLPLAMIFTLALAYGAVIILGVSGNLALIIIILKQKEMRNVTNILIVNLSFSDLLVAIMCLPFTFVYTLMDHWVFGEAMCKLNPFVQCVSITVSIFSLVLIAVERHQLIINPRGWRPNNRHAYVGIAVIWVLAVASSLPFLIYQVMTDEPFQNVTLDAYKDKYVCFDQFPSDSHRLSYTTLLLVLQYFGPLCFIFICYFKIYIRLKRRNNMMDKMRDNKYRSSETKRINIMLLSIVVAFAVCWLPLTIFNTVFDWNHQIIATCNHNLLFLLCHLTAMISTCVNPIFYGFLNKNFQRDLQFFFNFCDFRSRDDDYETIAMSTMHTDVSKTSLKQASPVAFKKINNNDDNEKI
The settings on record: read-out: AC50.

The next assay addresses T5, B2 bradykinin receptor (Homo sapiens, UniProt P30411).
T5 sequence (P30411 whole entry): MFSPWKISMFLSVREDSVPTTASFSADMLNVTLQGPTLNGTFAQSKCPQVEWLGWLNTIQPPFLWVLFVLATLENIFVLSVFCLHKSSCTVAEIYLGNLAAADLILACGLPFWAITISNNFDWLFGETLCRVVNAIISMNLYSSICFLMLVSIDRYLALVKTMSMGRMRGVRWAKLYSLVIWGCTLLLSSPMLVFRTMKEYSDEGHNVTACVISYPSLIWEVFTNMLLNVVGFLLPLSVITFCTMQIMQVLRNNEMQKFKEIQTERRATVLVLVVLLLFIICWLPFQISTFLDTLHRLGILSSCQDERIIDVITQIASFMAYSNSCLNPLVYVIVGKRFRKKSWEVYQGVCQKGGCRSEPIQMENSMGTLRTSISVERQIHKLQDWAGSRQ

Assay [8] addresses Growth hormone secretagogue receptor type 1 (Homo sapiens, UniProt Q92847).
The target of assay [9] is Sodium-dependent noradrenaline transporter (Homo sapiens, UniProt P23975).
Chain of Sodium-dependent noradrenaline transporter (P23975 whole entry): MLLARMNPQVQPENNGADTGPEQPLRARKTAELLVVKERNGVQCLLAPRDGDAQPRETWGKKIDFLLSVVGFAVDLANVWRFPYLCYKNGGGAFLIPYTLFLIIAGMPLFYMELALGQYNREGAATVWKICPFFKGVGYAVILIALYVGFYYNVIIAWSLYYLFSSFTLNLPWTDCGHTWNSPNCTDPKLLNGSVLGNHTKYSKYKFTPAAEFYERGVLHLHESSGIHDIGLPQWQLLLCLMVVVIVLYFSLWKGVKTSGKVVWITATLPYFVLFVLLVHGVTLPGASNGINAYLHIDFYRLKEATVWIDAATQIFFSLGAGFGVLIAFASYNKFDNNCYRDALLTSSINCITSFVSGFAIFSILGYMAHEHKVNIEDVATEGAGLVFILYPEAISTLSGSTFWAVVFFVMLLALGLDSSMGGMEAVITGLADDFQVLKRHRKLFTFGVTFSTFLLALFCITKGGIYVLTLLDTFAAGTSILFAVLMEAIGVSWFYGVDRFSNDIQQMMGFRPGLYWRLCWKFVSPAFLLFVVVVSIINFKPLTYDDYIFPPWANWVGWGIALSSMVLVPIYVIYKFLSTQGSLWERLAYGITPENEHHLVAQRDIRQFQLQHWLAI
Further: assay procedure not described here.

Chain of Growth hormone secretagogue receptor type 1 (Q92847 whole entry): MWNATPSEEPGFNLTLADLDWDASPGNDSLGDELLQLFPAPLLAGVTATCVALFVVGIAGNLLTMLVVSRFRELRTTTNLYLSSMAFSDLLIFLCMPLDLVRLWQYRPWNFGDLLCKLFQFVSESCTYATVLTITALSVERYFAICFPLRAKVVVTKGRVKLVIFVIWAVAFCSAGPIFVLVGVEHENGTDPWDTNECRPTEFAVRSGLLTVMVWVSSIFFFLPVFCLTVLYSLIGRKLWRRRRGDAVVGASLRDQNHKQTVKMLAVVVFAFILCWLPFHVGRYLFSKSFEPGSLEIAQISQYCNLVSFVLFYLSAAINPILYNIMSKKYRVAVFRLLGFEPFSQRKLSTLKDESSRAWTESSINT
Chain of Melanocortin receptor 3 (P41968 whole entry): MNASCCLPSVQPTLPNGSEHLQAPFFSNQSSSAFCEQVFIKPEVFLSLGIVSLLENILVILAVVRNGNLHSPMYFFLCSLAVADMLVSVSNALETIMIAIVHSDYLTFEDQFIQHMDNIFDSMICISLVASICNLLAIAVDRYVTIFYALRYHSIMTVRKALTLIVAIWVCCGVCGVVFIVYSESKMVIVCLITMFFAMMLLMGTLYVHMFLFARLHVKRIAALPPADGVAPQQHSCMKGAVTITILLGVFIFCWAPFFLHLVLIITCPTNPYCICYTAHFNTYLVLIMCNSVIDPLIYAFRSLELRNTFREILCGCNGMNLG
Chain of Adenosine receptor A2a (P29274 whole entry): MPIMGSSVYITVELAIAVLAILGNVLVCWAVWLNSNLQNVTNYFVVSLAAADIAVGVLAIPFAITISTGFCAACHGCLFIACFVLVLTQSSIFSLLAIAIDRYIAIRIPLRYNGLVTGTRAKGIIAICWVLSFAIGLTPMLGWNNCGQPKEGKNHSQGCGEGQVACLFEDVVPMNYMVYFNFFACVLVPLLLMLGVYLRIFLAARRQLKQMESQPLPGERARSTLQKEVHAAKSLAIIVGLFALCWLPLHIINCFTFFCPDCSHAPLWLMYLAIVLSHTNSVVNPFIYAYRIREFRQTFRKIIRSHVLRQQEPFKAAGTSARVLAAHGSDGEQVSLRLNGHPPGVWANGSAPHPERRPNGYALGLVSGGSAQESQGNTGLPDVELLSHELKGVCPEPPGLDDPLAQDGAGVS
Chain of Motilin receptor (O43193 whole entry): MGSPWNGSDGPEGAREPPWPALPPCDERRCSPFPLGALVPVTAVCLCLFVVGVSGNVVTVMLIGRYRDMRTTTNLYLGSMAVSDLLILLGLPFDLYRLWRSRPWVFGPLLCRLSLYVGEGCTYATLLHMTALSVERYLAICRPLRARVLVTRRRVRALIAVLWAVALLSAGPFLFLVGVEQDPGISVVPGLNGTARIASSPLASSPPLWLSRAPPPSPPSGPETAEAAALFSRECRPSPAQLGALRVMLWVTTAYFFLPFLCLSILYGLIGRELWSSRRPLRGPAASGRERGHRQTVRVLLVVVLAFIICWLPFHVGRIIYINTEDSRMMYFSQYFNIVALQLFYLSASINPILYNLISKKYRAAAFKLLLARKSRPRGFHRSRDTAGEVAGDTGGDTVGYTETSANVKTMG
Chain of D(3) dopamine receptor (P35462 whole entry): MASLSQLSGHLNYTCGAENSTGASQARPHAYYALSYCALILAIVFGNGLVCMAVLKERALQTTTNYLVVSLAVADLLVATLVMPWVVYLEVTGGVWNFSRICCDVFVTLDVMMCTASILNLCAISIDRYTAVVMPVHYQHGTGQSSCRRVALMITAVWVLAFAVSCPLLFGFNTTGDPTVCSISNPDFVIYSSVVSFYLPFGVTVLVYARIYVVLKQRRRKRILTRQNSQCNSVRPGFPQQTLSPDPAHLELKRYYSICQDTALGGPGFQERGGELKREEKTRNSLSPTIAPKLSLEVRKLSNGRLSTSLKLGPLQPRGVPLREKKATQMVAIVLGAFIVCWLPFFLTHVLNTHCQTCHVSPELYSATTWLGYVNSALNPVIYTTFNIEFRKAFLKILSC
Chain of Vasopressin V2 receptor (P30518 whole entry): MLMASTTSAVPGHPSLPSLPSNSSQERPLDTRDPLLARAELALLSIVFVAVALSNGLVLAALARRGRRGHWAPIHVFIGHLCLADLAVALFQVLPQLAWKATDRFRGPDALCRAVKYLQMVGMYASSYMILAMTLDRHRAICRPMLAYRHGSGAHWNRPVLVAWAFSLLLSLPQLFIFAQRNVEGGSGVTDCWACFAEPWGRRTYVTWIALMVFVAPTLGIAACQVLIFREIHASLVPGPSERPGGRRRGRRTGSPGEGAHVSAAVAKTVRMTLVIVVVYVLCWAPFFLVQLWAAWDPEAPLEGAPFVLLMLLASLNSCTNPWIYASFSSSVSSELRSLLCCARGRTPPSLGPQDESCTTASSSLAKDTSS

Consider `Cc1cc(C(C)(C)C)cc(C)c1CC1=NCCN1` [XYLOMETAZOLINE], for which the concentration at half-maximal activity (AC50) on D(3) dopamine receptor was 3.87 µM; on Adenosine receptor A2a it was more than 30 µM; in [1], more than 30 µM; at Motilin receptor it was more than 30 µM; in [2], more than 30 µM; in assay [3], more than 30 µM. The concentration at half-maximal activity (AC50) in [4] was more than 30 µM; on Vasopressin V2 receptor, more than 30 µM; in [5], more than 30 µM; in [6] it was 5.2 µM; in assay [7], more than 30 µM; at B2 bradykinin receptor, more than 30 µM. Besides, the AC50 (in assay [8]; in [9]; on Melanocortin receptor 3) was more than 30 µM each time.

The term AC50 denotes the concentration giving half of the maximal activity seen.

These data come from ChEMBL document CHEMBL5291721, “A preclinical secondary pharmacology resource illuminates target-adverse drug reaction associations of marketed drugs” (Nat Commun, 2023).
